Data published in patent US20190029257A1, “APPLICATION FOR HERBICIDE-TOLERANT PROTEIN” (BEIJING DABEINONG TECHNOLOGY GROUP CO., LTD., priority 2016, published 2019).

How the values were obtained:
Type in all cases: in vivo
[1] = test system: wild-type maize plants (CK2); assay: Halosulfuron-methyl tolerance of maize plants (damage degree); design: Average damage % 3 DAT / Average damage % 7 DAT / Average damage % 14 DAT / Average damage % 21 DAT: dose or concentration left out as unconfirmed
Procedure: The herbicide tolerance effects of Zm cytoplasmic ALT-1-02 maize plants, Zm chloroplastic ALT-1-02 maize plants, Zm cytoplasmic ALT-2-02 maize plants, Zm chloroplastic ALT-2-02 maize plants, Zm cytoplasmic ALT-3-02 maize plants, Zm chloroplastic ALT-3-02 maize plants and wild-type maize plants on halosulfuron-methyl were detected (at V3-V4 stage), respectively.
[…] The damage degree caused by the herbicide was measured for each plant according to the plant growth status 3 days after spraying (3 DAT), 7 days after spraying (7 DAT), 14 days after spraying (14 DAT) and 21 days after spraying (21 DAT), respectively: considering a growth status equivalent to that of the untreated plants as having a damage degree of 0%; considering conditions of leaves being partially chlorotic and yellow but substantially not affecting the plant normal growth as having a damage degree of 50%; and considering the whole plant being purple and dying as having a damage degree of 100%. There were 2 strains in Zm cytoplasmic ALT-1-02 maize plants in total (S13 and S14), 2 strains in Zm chloroplastic ALT-1-02 maize plants in total (S15 and S16), 2 strains in Zm cytoplasmic ALT-2-02 maize plants in total (S17 and S18), 2 strains in Zm chloroplastic ALT-2-02 maize plants in total (S19 and S20), 2 strains in Zm cytoplasmic ALT-3-02 maize plants in total (S21 and S22), 2 strains in Zm chloroplastic ALT-3-02 maize plants in total (S23 and S24), and 1 strain in wild- type maize plants (CK2) in total; and 10-15 plants were selected from each strain and tested.

[2] = test system: At cytoplasmic ALT-2-01 T1 plants; assay: Herbicide tolerance of Arabidopsis thaliana T1 plants (spray, resistance classes counted); settings: 18 g ai/ha (1x Hal.); number of plants 14 days after spraying; Total 28
From the text: (§1) T1 transformants were initially selected from the background of untransformed seeds using a glufosinate selection scheme. About 40000 T1 seeds were screened, and 380 T1 positive transformants (PAT gene) were identified with a transformation efficiency of about 0.95%. The plants that were transformed with the recombinant expression vector DBN100632 were Arabidopsis thaliana plants having an ALT-1-01 nucleotide sequence located in the cytoplasm introduced (At cytoplasmic ALT-1-01), and the plants that were transformed with the recombinant expression vector DBN100631 were Arabidopsis thaliana plants having an ALT-1-01 nucleotide sequence located in the chloroplast introduced (At chloroplastic ALT-1-01); the plants that were transformed with the recombinant expression vector DBN100634 were Arabidopsis thaliana plants having an ALT-2-01 nucleotide sequence located in the cytoplasm introduced (At cytoplasmic ALT-2-01), and the plants that were transformed with the recombinant expression vector DBN100633 were Arabidopsis thaliana plants having an ALT-2-01 nucleotide sequence located in the chloroplast introduced (At chloroplastic ALT-2-01); and the plants that were transformed with the recombinant expression vector DBN100636 were Arabidopsis thaliana plants having an ALT-3-01 nucleotide sequence located in the cytoplasm introduced (At cytoplasmic ALT-3-01), and the plants that were transformed with the recombinant expression vector DBN100635 were Arabidopsis thaliana plants having an ALT-3-01 nucleotide sequence located in the chloroplast introduced (At chloroplastic ALT-3-01). The herbicide tolerance effects of At cytoplasmic ALT-1-01 T1 plants, At chloroplastic ALT-1-01 T1 plants, At cytoplasmic ALT-2-01 T1 plants, At chloroplastic ALT-2-01 T1 plants, At cytoplasmic ALT-3-01 T1 plants, At chloroplastic ALT-3-01 T1 plants and wild-type Arabidopsis thaliana plants on halosulfuron-methyl were detected (14 days after sowing), respectively.
(§2) […] Plants were counted for the resistance situations 14 days after spraying: those having a consistent growth status with the blank solvent (water) group after 14 days were classified as highly resistant plants, those having a bolting height less than ½ of that of the blank solvent (water) group after 14 days were classified as moderately resistant plants, those still not capable of bolting after 14 days were classified as poorly resistant plants, and those dead after 14 days were classified as non-resistant plants. Since each Arabidopsis thaliana T1 plant was an independent transformation event, a significant difference in individual T1 responses could be expected at a given dose.
as §2, with “situation” for “situations”

[3] = test system: At cytoplasmic ALT-1-01 T1 plants; assay: as above; settings: 18 g ai/ha (1x Hal.); number of plants 14 days after spraying; Total 31
From the text: as §1, §2
as §2, with “situation” for “situations”

[4] = test system: At chloroplastic ALT-2-01 T1 plants; assay: as above; settings: 18 g ai/ha (1x Hal.); number of plants 14 days after spraying; Total 31
From the text: as §1, §2
as §2, with “situation” for “situations”

[5] = test system: At cytoplasmic ALT-3-01 T1 plants; assay: as above; settings: 18 g ai/ha (1x Hal.); number of plants 14 days after spraying; Total 28
From the text: as §1, §2
as §2, with “situation” for “situations”

[6] = test system: At chloroplastic ALT-3-01 T1 plants; assay: as above; settings: 18 g ai/ha (1x Hal.); number of plants 14 days after spraying; Total 30
From the text: as §1, §2
as §2, with “situation” for “situations”

[7] = test system: At chloroplastic ALT-1-01 T1 plants; assay: as above; settings: 18 g ai/ha (1x Hal.); number of plants 14 days after spraying; Total 31
From the text: as §1, §2
as §2, with “situation” for “situations”

In the case of `COC(=O)c1c(Cl)nn(C)c1S(=O)(=O)NC(=O)Nc1nc(OC)cc(OC)n1` [halosulfuron-methyl, 3-chlorine-5-(4,6-dimethoxypyrimidine-2-aminocarbonylaminosulphonyl)-1-methylpyrazole-4-carboxylic acid methyl ester], the “damage to the plants” value ([1]; 36 g ai/ha, summary of Table 4) is reported as “some slight damage”, the “Average damage % 3 DAT” value ([1]; strain CK2, 3 days after spraying) is reported as 10% and the “Average damage % 7 DAT” value ([1]; strain CK2, 7 days after spraying) is reported as 20%. For the same compound, the “Average damage % 14 DAT” value ([1]; strain CK2, 14 days after spraying) was 19%, the “Average damage % 21 DAT” value ([1]; strain CK2, 21 days after spraying) was 18% and the Highly resistant [2] was 1. It also gave a Moderately resistant [2] of 6, a Non-resistant [2] of 5 and a Poorly resistant [2] of 4. The Moderately resistant [3] was 6, the Non-resistant [3] was 15 and the Poorly resistant [3] was 5. The Highly resistant [4] was 1, the Moderately resistant [4] was 4 and the Non-resistant [4] was 5. For the same compound, the Poorly resistant [4] was 7, the Highly resistant [5] was 1 and the Moderately resistant [5] was 6. The Non-resistant [5] was 5, the Poorly resistant [5] was 5 and the Highly resistant [6] was 1. The Moderately resistant [6] was 6, the Non-resistant [6] was 5 and the Poorly resistant [6] was 5. For the same compound, the Highly resistant [7] was 1, the Moderately resistant [7] was 2 and the Non-resistant [7] was 7. It also gave a Poorly resistant [7] of 5.
